Source: PubChem BioAssay AID1963847 (Molecular Pharmacology Branch, DTP, NCI, 2024)
pIC50: −log10 of the molar value.

System: 415267-285-R-J2-PDC complex spheroid viability
Experiment: Anticancer human tumor 415267-285-R-J2-PDC patient-derived breast carcinoma cell line growth inhibition [POLQ]
Settings: for pIC50: curve of first compound; for viability, T/C: stronger effect = lower value
Method in brief: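 Complex spheroid viability model combining PDC tumour cells with endothelial (HUVEC) and MSC stromal cells. Novobiocin, ART-558 or RP6685 were tested singly and in combination with standard and investigational anticancer drugs. Each was titrated in half-log steps from near clinical Cmax, or from 10 microM where Cmax was unknown.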
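Note: spheroids exposed to compounds for one week before readout.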
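Throughout, for viability, T/C: luminescence used as stand-in measure of viable cells; 100% = DMSO vehicle control viability.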

Q: With `CNCc1ccc(-c2[nH]c3cc(F)cc4c3c2CCNC4=O)cc1` + COC1C(OC(N)=O)C(O)C(Oc2ccc3c(O)c(NC(=O)c4ccc(O)c(CC=C(C)C)c4)c(=O)oc3c2C)OC1(C)C as the compound, how does the pIC50 (second compound 0.0316 µM) read?
A: Its pIC50 is under 5.00.

Q: And the pIC50 (second compound 0.1 µM)?
A: The pIC50 was under 5.00.

Q: And the pIC50 (second compound 0.316 µM)?
A: Its pIC50 is under 5.00.

Q: What about the pIC50 (second compound 1 µM) of the same compound?
A: The pIC50 was under 5.00.

Q: What about the pIC50 (second compound 3.16 µM) of the same compound?
A: Its pIC50 is under 5.00.

Q: What about the pIC50 (second compound 10 µM) of the same compound?
A: Its pIC50 is under 5.00.

Q: What about the viability, T/C (second compound 0.0316 µM, first compound 0.0316 µM) of the same compound?
A: The viability, T/C was 114%.

Q: And the viability, T/C (second compound 0.0316 µM, first compound 0.1 µM)?
A: Its viability, T/C is 104%.

Q: And the viability, T/C (second compound 0.0316 µM, first compound 0.316 µM)?
A: Its viability, T/C is 99%.

Q: And the viability, T/C (second compound 0.0316 µM, first compound 1 µM)?
A: The viability, T/C was 113%.

Q: What about the viability, T/C (second compound 0.0316 µM, first compound 3.16 µM) of the same compound?
A: Its viability, T/C is 117%.

Q: What about the viability, T/C (second compound 0.0316 µM, first compound 10 µM) of the same compound?
A: The viability, T/C was 113%.

Q: What about the viability, T/C (second compound 0.1 µM, first compound 0.0316 µM) of the same compound?
A: Its viability, T/C is 97.7%.

Q: And the viability, T/C (second compound 0.1 µM, first compound 0.1 µM)?
A: Its viability, T/C is 103%.

Q: What about the viability, T/C (second compound 0.1 µM, first compound 0.316 µM) of the same compound?
A: Its viability, T/C is 117%.

Q: What about the viability, T/C (second compound 0.1 µM, first compound 1 µM) of the same compound?
A: Its viability, T/C is 107%.

Q: And the viability, T/C (second compound 0.1 µM, first compound 3.16 µM)?
A: Its viability, T/C is 106%.

Q: And the viability, T/C (second compound 0.1 µM, first compound 10 µM)?
A: Its viability, T/C is 106%.

Q: What about the viability, T/C (second compound 0.316 µM, first compound 0.0316 µM) of the same compound?
A: Its viability, T/C is 95.7%.

Q: And the viability, T/C (second compound 0.316 µM, first compound 0.1 µM)?
A: The viability, T/C was 109%.

Q: And the viability, T/C (second compound 0.316 µM, first compound 0.316 µM)?
A: The viability, T/C was 95.3%.

Q: What about the viability, T/C (second compound 0.316 µM, first compound 1 µM) of the same compound?
A: The viability, T/C was 114%.

Q: What about the viability, T/C (second compound 0.316 µM, first compound 3.16 µM) of the same compound?
A: Its viability, T/C is 102%.

Q: And the viability, T/C (second compound 0.316 µM, first compound 10 µM)?
A: The viability, T/C was 98.8%.

Q: And the viability, T/C (second compound 1 µM, first compound 0.0316 µM)?
A: Its viability, T/C is 115%.

Q: What about the viability, T/C (second compound 1 µM, first compound 0.1 µM) of the same compound?
A: Its viability, T/C is 105%.

Q: What about the viability, T/C (second compound 1 µM, first compound 0.316 µM) of the same compound?
A: Its viability, T/C is 97.8%.

Q: And the viability, T/C (second compound 1 µM, first compound 1 µM)?
A: Its viability, T/C is 127%.

Q: And the viability, T/C (second compound 1 µM, first compound 3.16 µM)?
A: Its viability, T/C is 102%.

Q: And the viability, T/C (second compound 1 µM, first compound 10 µM)?
A: Its viability, T/C is 98.7%.

Q: And the viability, T/C (second compound 3.16 µM, first compound 0.0316 µM)?
A: Its viability, T/C is 95%.

Q: What about the viability, T/C (second compound 3.16 µM, first compound 0.1 µM) of the same compound?
A: Its viability, T/C is 99.4%.

Q: What about the viability, T/C (second compound 3.16 µM, first compound 0.316 µM) of the same compound?
A: The viability, T/C was 120%.

Q: And the viability, T/C (second compound 3.16 µM, first compound 1 µM)?
A: Its viability, T/C is 116%.

Q: And the viability, T/C (second compound 3.16 µM, first compound 3.16 µM)?
A: The viability, T/C was 102%.

Q: And the viability, T/C (second compound 3.16 µM, first compound 10 µM)?
A: Its viability, T/C is 104%.

Q: And the viability, T/C (second compound 10 µM, first compound 0.0316 µM)?
A: The viability, T/C was 104%.

Q: What about the viability, T/C (second compound 10 µM, first compound 0.1 µM) of the same compound?
A: Its viability, T/C is 108%.

Q: What about the viability, T/C (second compound 10 µM, first compound 0.316 µM) of the same compound?
A: Its viability, T/C is 104%.

Q: And the viability, T/C (second compound 10 µM, first compound 1 µM)?
A: Its viability, T/C is 106%.

Q: And the viability, T/C (second compound 10 µM, first compound 3.16 µM)?
A: The viability, T/C was 99.9%.

Q: And the viability, T/C (second compound 10 µM, first compound 10 µM)?
A: Its viability, T/C is 111%.
